PubChem BioAssay (NCI)
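1) Cells in 96-well plates. 2) Compound, 48 h, 5 concentrations. 3) Linear interpolation between surrounding doses. 4) Unreached endpoint = highest concentration. Abbreviation: GI50, concentration required for 50% inhibition of growth. TGI marks complete inhibition of growth.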

Tests used:
Test in all cases: NCI anticancer screen, dose series, 48 h
[1] = tested on: NCI-H460 lung
[2] = tested on: SK-MEL-2 melanoma
[3] = tested on: T-47D breast
[4] = tested on: DU-145 prostate
[5] = tested on: SK-MEL-5 melanoma
[6] = tested on: OVCAR-3 ovarian
[7] = tested on: CCRF-CEM leukemia
[8] = tested on: NCI-H23 lung
[9] = tested on: M14 melanoma
[10] = tested on: U251 CNS
[11] = tested on: HCC-2998 colon
[12] = tested on: IGROV1 ovarian
[13] = tested on: NCI-H522 lung
[14] = tested on: SK-OV-3 ovarian
[15] = tested on: TK-10 renal
[16] = tested on: ACHN renal
[17] = tested on: UO-31 renal
[18] = tested on: COLO 205 colon
[19] = tested on: PC-3 prostate
[20] = tested on: MOLT-4 leukemia
[21] = tested on: OVCAR-4 ovarian
[22] = tested on: 786-0 renal
[23] = tested on: MDA-MB-231 breast
[24] = tested on: UACC-62 melanoma
[25] = tested on: UACC-257 melanoma
[26] = tested on: SNB-19 CNS
[27] = tested on: HL-60(TB) leukemia
[28] = tested on: RPMI-8226 leukemia
[29] = tested on: SW-620 colon
[30] = tested on: CAKI-1 renal
[31] = tested on: K-562 leukemia
[32] = tested on: LOX IMVI melanoma
[33] = tested on: HT29 colon
[34] = tested on: MDA-MB-435
[35] = tested on: MALME-3M melanoma
[36] = tested on: SF-268 CNS
[37] = tested on: HOP-92 NSCLC
[38] = tested on: SF-539 CNS
[39] = tested on: NCI/ADR-RES ovarian
[40] = tested on: HOP-62 NSCLC
[41] = tested on: SN12C renal
[42] = tested on: HCT-116 colon
[43] = tested on: MCF7 breast
[44] = tested on: A549 NSCLC
[45] = tested on: SNB-75 CNS
[46] = tested on: SK-MEL-28 melanoma
[47] = tested on: OVCAR-5 ovarian
[48] = tested on: HCT-15 colon
[49] = tested on: SR leukemia
[50] = tested on: BT-549 breast
[51] = tested on: KM12 colon
[52] = tested on: NCI-H226 lung
[53] = tested on: OVCAR-8 ovarian
[54] = tested on: A498 renal
[55] = tested on: SF-295 CNS

SMILES: COc1cc(Nc2ccnc(NCCCNc3ccnc4cc(Cl)ccc34)n2)cc(OC)c1
- GI50 [1]: 1.46 µM
- TGI [1]: 3.77 µM
- GI50 [2]: 1.91 µM
- TGI [2]: 3.54 µM
- GI50 [3]: 1.89 µM
- TGI [3]: 4.81 µM
- GI50 [4]: 3.62 µM
- TGI [4]: 12.2 µM
- GI50 [5]: 1.51 µM
- TGI [5]: 2.84 µM
- GI50 [6]: 1.95 µM
- TGI [6]: 4.32 µM
- GI50 [7]: 1.19 µM
- TGI [7]: 3.88 µM
- GI50 [8]: 2.67 µM
- TGI [8]: 10.2 µM
- GI50 [9]: 1.7 µM
- TGI [9]: 3.46 µM
- GI50 [10]: 1.38 µM
- TGI [10]: 2.75 µM
- GI50 [11]: 1.58 µM
- TGI [11]: 3.36 µM
- GI50 [12]: 2.23 µM
- TGI [12]: 5.73 µM
- GI50 [13]: 1.8 µM
- TGI [13]: 3.78 µM
- GI50 [14]: 2.42 µM
- TGI [14]: 6.08 µM
- GI50 [15]: 1.81 µM
- TGI [15]: 3.63 µM
- GI50 [16]: 1.8 µM
- TGI [16]: 3.53 µM
- GI50 [17]: 1.37 µM
- TGI [17]: 2.79 µM
- GI50 [18]: 1.38 µM
- TGI [18]: 2.9 µM
- GI50 [19]: 2.68 µM
- TGI [19]: 14.2 µM
- GI50 [20]: 2.23 µM
- TGI [20]: 6.39 µM
- GI50 [21]: 1.58 µM
- TGI [21]: 5.1 µM
- GI50 [22]: 1.59 µM
- TGI [22]: 3.12 µM
- GI50 [23]: 1.5 µM
- TGI [23]: 3.16 µM
- GI50 [24]: 1.67 µM
- TGI [24]: 3.13 µM
- GI50 [25]: 1.84 µM
- TGI [25]: 3.44 µM
- GI50 [26]: 2.32 µM
- TGI [26]: 8 µM
- GI50 [27]: 2.04 µM
- TGI [27]: 4.54 µM
- GI50 [28]: 1.56 µM
- TGI [28]: 4.11 µM
- GI50 [29]: 1.28 µM
- TGI [29]: 2.78 µM
- GI50 [30]: 1.62 µM
- TGI [30]: 3.26 µM
- GI50 [31]: 0.52 µM
- TGI [31]: 2.39 µM
- GI50 [32]: 1.37 µM
- TGI [32]: 2.82 µM
- GI50 [33]: 1.33 µM
- TGI [33]: 3.62 µM
- GI50 [34]: 1.51 µM
- TGI [34]: 2.88 µM
- GI50 [35]: 2.02 µM
- TGI [35]: 3.86 µM
- GI50 [36]: 1.8 µM
- TGI [36]: 3.88 µM
- GI50 [37]: 0.431 µM
- TGI [37]: 2.69 µM
- GI50 [38]: 1.58 µM
- TGI [38]: 3.09 µM
- GI50 [39]: 2.9 µM
- TGI [39]: 12.5 µM
- GI50 [40]: 1.75 µM
- TGI [40]: 5.12 µM
- GI50 [41]: 2 µM
- TGI [41]: 7.3 µM
- GI50 [42]: 0.842 µM
- TGI [42]: 2.73 µM
- GI50 [43]: 1.28 µM
- TGI [43]: 3 µM
- GI50 [44]: 2.09 µM
- TGI [44]: 5.46 µM
- GI50 [45]: 1.31 µM
- TGI [45]: 2.58 µM
- GI50 [46]: 1.66 µM
- TGI [46]: 3.09 µM
- GI50 [47]: 2.01 µM
- TGI [47]: 6 µM
- GI50 [48]: 1.51 µM
- TGI [48]: 3.09 µM
- GI50 [49]: 0.423 µM
- TGI [49]: 2.08 µM
- GI50 [50]: 1.79 µM
- TGI [50]: 4.42 µM
- GI50 [51]: 2.92 µM
- TGI [51]: 9.46 µM
- GI50 [52]: 2.5 µM
- TGI [52]: 9.16 µM
- GI50 [53]: 2.07 µM
- TGI [53]: 5.65 µM
- GI50 [54]: 1 µM
- TGI [54]: 2.81 µM
- GI50 [55]: 1.37 µM
- TGI [55]: 2.78 µM
